{"source": "patent US20030134305A1", "about": "“Method for the enumeration of mammalian micronucleated erythrocyte populations with a single-laser flow cytometer” (priority 2001, published 2003)", "system": "rat peripheral blood erythrocyte populations", "details": "male rat, oral, 10 mg/kg body weight/day for 6 days", "key": {"[1]": {"details": "tail vein blood ~24 hours after final administration, single replicate, 10 mg/kg/day"}}, "note": "“And” between values parts separate entries of the source, which are not always exact repeats. Equal entries are not always repeated.", "method": "Approximately 24 hours after the sixth and final administration, blood was collected from the tail vein after a brief warming period under a heat lamp. Blood was maintained in a sodium heparin solution (500 USP units heparin/ml PBS) at room temperature until samples were fixed with −80° C. methanol. The fixed blood samples were divided into several aliquots and were coded for single-blind analysis. […] Pellets were tapped loose and 40 μl of each cell suspension was transferred to tubes containing 100 μl labeling solution (1000 μl HBSS with 0.5% fetal bovine serum plus 5 μl anti-rat CD71-PE plus 20 μg RNase A). Cells were then incubated for 30 minutes at 4° C. and then 45 minutes at 37° C. Unbound antibody was washed by adding 3 ml HBSS plus 0.5% fetal bovine serum and centrifuging for 5 minutes at about 600×g. Supernatants were aspirated, and cell pellets were tapped loose. Cells were resuspended with 1 ml HBSS containing 10^−5 dilution of SYTOX Green nucleic acid dye. Sufficient time was allowed for the nucleic acid dye to load and equilibrate with the cells (about 15 minutes at 4° C.). Cells labeled with anti-CD71-PE and stained with SYTOX Green were analyzed with a FACSCalibur flow cytometer (488 nm excitation). The frequencies of RET^CD71+, MN-RET^CD71+ and MN-NCEs were determined. As commonly practiced by flow cytometry operators, events were gated on light scatter characteristics, and in this way subcellular debris or cellular aggregates were excluded from analysis. […] For these analyses, the stop mode was the acquisition of 20,000 RETs per replicate.", "data": [{"smiles": "O=P1(N(CCCl)CCCl)NCCCO1", "note": "(centres unmarked) [cyclophosphamide]", "values": [{"measurement": "% RET^CD71+ (CD71-positive reticulocytes)", "setting": "tail vein blood ~24 hours after final administration, single replicate, 20,000 RETs per replicate", "result": "2.66% and 2.72% and 2.57%"}, {"measurement": "% MN-NCE (micronucleated normochromatic erythrocytes)", "setting": "[1]", "result": "0.05% and 0.04% (2×)"}, {"measurement": "% MN-RET^CD71+ (micronucleated CD71-positive reticulocytes)", "setting": "[1]", "result": "0.73% and 0.64% and 0.63%"}, {"measurement": "% MN-NCE (micronucleated normochromatic erythrocytes), Avg.", "setting": "Avg. of 3 replicates", "result": 0.04, "unit": "%"}, {"measurement": "% MN-RET^CD71+ (micronucleated CD71-positive reticulocytes), Avg.", "setting": "Avg. of 3 replicates", "result": 0.67, "unit": "%"}, {"measurement": "% RET^CD71+ (CD71-positive reticulocytes), Avg.", "setting": "Avg. of 3 replicates", "result": 2.65, "unit": "%"}, {"measurement": "DNA-breaking activity: MN-RET^CD71+ frequency versus water-treated rat", "setting": "result in words", "result": "increased"}, {"measurement": "cytostatic effect: RET^CD71+ frequency versus water-treated rat", "setting": "result in words", "result": "decreased"}]}]}
